Read-outs that look alike come from different tables or passages of the source.
Key:
hPEPT1 [1] = target: T1, hPEPT1 (Homo sapiens, UniProt P46059); format: cell-based; conditions: for affinity for hPEPT1 compared to the lead promoiety H-Phe-Ser-Ala-OH: statistical comparison, N = 3
T1 sequence (P46059 1-708): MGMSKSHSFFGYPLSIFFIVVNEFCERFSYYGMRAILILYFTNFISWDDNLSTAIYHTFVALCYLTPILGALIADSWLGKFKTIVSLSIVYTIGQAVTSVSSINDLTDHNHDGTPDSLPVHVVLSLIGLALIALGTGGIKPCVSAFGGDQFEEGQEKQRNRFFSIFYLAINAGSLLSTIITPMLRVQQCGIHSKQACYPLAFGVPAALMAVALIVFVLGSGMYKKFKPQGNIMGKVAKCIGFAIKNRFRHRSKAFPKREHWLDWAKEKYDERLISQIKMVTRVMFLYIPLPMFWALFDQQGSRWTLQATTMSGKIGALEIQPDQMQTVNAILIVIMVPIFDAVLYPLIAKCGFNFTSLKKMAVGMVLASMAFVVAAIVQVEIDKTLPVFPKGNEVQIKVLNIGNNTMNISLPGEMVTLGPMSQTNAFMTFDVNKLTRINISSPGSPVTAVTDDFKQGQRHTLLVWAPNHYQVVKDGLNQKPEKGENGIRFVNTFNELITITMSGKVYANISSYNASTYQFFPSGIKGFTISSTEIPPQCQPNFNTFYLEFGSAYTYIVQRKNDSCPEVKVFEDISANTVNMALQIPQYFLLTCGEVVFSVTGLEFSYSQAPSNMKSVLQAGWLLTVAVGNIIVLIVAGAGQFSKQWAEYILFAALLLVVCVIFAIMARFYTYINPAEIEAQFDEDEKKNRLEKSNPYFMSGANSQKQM

hPEPT1 [2] = target: T1, hPEPT1; conditions: investigation of 55 tripeptides; cited from earlier work
hPEPT1 [3] = target: T1, hPEPT1; conditions: value obtained by refitting data presented in Thorn et al.; cited from earlier work

| Compound | affinity for hPEPT1 compared to the lead promoiety H-Phe-Ser-Ala-OH (hPEPT1 [1]) | interaction with hPEPT1 in translocation study (hPEPT1 [2]) | further results |
| --- | --- | --- | --- |
| C[C@H](NC(=O)[C@H](COC(=O)c1ccccc1)CC(=O)[C@@H](N)Cc1ccccc1)C(=O)O.O=C(O)C(F)(F)F [Compound 14A, H-Phe-ψ[COCH2]Ser(Bz)-Ala-OH] | did not have significantly different affinities | – | – |
| CCC[C@H](NC(=O)[C@H](COC(=O)c1ccccc1)CC(=O)[C@@H](N)Cc1ccccc1)C(=O)O.O=C(O)C(F)(F)F [Compound 14B, H-Phe-ψ[COCH2]Ser(Bz)-Nva-OH] | did not have significantly different affinities | – | – |
| N[C@@H](Cc1ccccc1)C(=O)C[C@@H](COC(=O)c1ccccc1)C(=O)N[C@H](C(=O)O)C1CCCCC1.O=C(O)C(F)(F)F [Compound 14C, H-Phe-ψ[COCH2]Ser(Bz)-Chg-OH] | significantly higher affinity | – | Ki (hPEPT1 [1]): 50 µM |
| Asp-Ile-Arg | – | not recognized by hPEPT1 | – |
| H-Phe-Ser-Ala-OH | – | – | Ki (hPEPT1 [3]): 260 µM |
| Met-Pro-Pro | – | inhibitor | – |

Reference: publication PMC3237634 (Bioorganic & medicinal chemistry letters, 2011)
